# Measured values published in US11377441B2, “Covalent inhibitors of KRAS” (Araxes Pharma LLC, priority 2017, dated 2022).
# Target: T1, KRAS G12C 1-169, his-tagged protein, GDP-loaded (Homo sapiens, UniProt P01116, G12C)
# T1 construct: KRAS G12C 1-169, his-tagged protein, GDP-loaded
# Test: Biochemical assay: covalent modification of KRAS G12C measured by mass spectrometry (RapidFire/TOF or Q-Exactive)
# Type: binding
# Conditions: covalent binding to (modification of) KRAS G12C after a ten minute incubation period
# Outline: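 GDP-loaded KRAS G12C 1-169 (his-tagged) at 2 μM or 0.5 μM in 20 mM Hepes, 150 mM NaCl, 1 mM MgCl2, incubated with compound at 100, 30 or 10 μM at room temperature for 10 min, 30 min, 2 h or 24 h, then quenched with formic acid. Intact-protein LC-MS, deconvolved; percent modification from modified versus unmodified protein.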
row,Compound,Binding %
1,"C=CC(=O)N1C2CCC1CN(c1nc(N3CC(N(C)C)C3)nc3c(F)c(-c4c(C)ccc5[nH]nc(N)c45)c(Cl)cc13)C2 [Compound 47, 1-((1R,5S)-3-(7-(3-amino-5-methyl-1H-indazol-4-yl)-6-chloro-2-(3-(dimethylamino)azetidin-1-yl)-8-fluoroquinazolin-4-yl)-3,8-diazabicyclo[3.2.1]oc-tan-8-yl)prop-2-en-1-one]",++ (++ indicates binding activity from 50 to 80%)
2,"C=CC(=O)N1CCN(c2nc(N3CC(N(C)C)C3)nc3c(F)c(-c4c(C)ccc5[nH]nc(N)c45)c(Cl)cc23)[C@@H](C)C1 [Compound 48, 1-((3S)-4-(7-(3-amino-5-methyl-1H-indazol-4-yl)-6-chloro-2-(3-(dimethylamino)azetidin-1-yl)-8-fluoroquinazolin-4-yl)-3-methylpiperazin-1-yl)prop-2-en-1-one]",+++ (+++ indicates binding activity greater than 80%)
3,"C=CC(=O)N1C[C@H](C)N(c2nc(OCCN3CCCC3)nc3c(F)c(-c4c(C)ccc5[nH]nc(N)c45)c(Cl)cc23)C[C@H]1C [Compound 49, 1-((2R,5S)-4-(7-(3-amino-5-methyl-1H-indazol-4-yl)-6-chloro-8-fluoro-2-(2-(pyrrolidin-1-yl)ethoxy)quinazolin-4-yl)-2,5-dimethylpiperazin-1-yl)prop-2-en-1-one]",+++ (+++ indicates binding activity greater than 80%)
4,"C=CC(=O)N1C[C@H](C)N(c2nc(N3CC(N(C)C)C3)nc3c(F)c(-c4c(C)ccc5onc(N)c45)c(Cl)cc23)C[C@H]1C [Compound 50, 1-((2R,5S)-4-(7-(3-amino-5-methylbenzo[d]isoxazol-4-yl)-6-chloro-2-(3-(dimethylamino)azetidin-1-yl)-8-fluoroquinazolin-4-yl)-2,5-dimethylpiperazin-1-yl)prop-2-en-1-one]",+++ (+++ indicates binding activity greater than 80%)
5,"C=CC(=O)N1C[C@H](C)N(c2nc(N3CC(N(C)C)C3)nc3c(F)c(-c4c(C)ccc5nc(C)[nH]c45)c(Cl)cc23)C[C@H]1C [Compound 52, 1-((2R,5S)-4-(6-chloro-7-(2,6-dimethyl-1H-benzo[d]imidazol-7-yl)-2-(3-(dimethylamino)azetidin-1-yl)-8-fluoroquinazolin-4-yl)-2,5-dimethylpiperazin-1-yl)prop-2-en-1-one]",++ (++ indicates binding activity from 50 to 80%)
6,"C=CC(=O)N1C[C@H](C)N(c2nc(N3CC(N(C)C)C3)nc3c(F)c(-c4c(C)cnc5[nH]ncc45)c(Cl)cc23)C[C@H]1C [Compound 56, 1-((2R,5S)-4-(6-chloro-2-(3-(dimethylamino)azetidin-1-yl)-8-fluoro-7-(5-methyl-1H-pyrazolo[3,4-b]pyridin-4-yl)quinazolin-4-yl)-2,5-dimethylpiperazin-1-yl)prop-2-en-1-one]",+ (+ indicates binding activity greater than 0% and up to 50%)
7,"C=CC(=O)N1C[C@H](C)N(c2nc(N3CC(N(C)C)C3)nc3c(F)c(-c4c(C)ccc5[nH]nc(C6CC6)c45)c(Cl)cc23)C[C@H]1C [Compound 57, 1-((2R,5S)-4-(6-chloro-7-(3-cyclopropyl-5-methyl-1H-indazol-4-yl)-2-(3-(dimethylamino)azetidin-1-yl)-8-fluoroquinazolin-4-yl)-2,5-dimethylpiperazin-1-yl)prop-2-en-1-one]",+++ (+++ indicates binding activity greater than 80%)
8,"C=CC(=O)N1C[C@H](C)N(c2nc(NCCC(=O)N3CCCC3)nc3c(F)c(-c4c(C)ccc5[nH]nc(N)c45)c(Cl)cc23)C[C@H]1C [Compound 60, 1-((2R,5S)-4-(7-(3-amino-5-methyl-1H-indazol-4-yl)-6-chloro-8-fluoro-2-(3-oxo-3-(pyrrolidin-1-yl)propylamino)quina-zolin-4-yl)-2,5-dimethylpiperazin-1-yl)prop-2-en-1-one]",+++ (+++ indicates binding activity greater than 80%)
9,"C=CC(=O)N1C[C@H](C)N(c2nc(N3CC(N(C)C)C3)nc3c(F)c(-c4c(C)ccc5[nH]nc(CC)c45)c(Cl)cc23)C[C@H]1C [Compound 61, 1-((2R,5S)-4-(6-chloro-2-(3-(dimethylamino)azetidin-1-yl)-7-(3-ethyl-5-methyl-1H-indazol-4-yl)-8-fluoroquinazolin-4-yl)-2,5-dimethylpiperazin-1-yl)prop-2-en-1-one]",+++ (+++ indicates binding activity greater than 80%)
10,"C=CC(=O)N1C[C@H](C)N(c2nc(NCCC(=O)N(C)C)nc3c(F)c(-c4c(C)ccc5[nH]nc(N)c45)c(Cl)cc23)C[C@H]1C [Compound 62, 3-(4-((2S,5R)-4-acryloyl-2,5-dimethylpiperazin-1-yl)-7-(3-amino-5-methyl-1H-indazol-4-yl)-6-chloro-8-fluoroquinazolin-2-ylamino)-N,N-dimethylpropanamide]",+++ (+++ indicates binding activity greater than 80%)
11,"C=CC(=O)N1C[C@H](C)N(c2nc(NCCCN(C)C)nc3c(F)c(-c4c(C)ccc5[nH]nc(N)c45)c(Cl)cc23)C[C@H]1C [Compound 63, 1-((2R,5S)-4-(7-(3-amino-5-methyl-1H-indazol-4-yl)-6-chloro-2-(3-(dimethylamino)propyl-amino)-8-fluoroquinazolin-4-yl)-2,5-dimethylpiperazin-1-yl)prop-2-en-1-one]",++ (++ indicates binding activity from 50 to 80%)
12,"C=CC(=O)N1C[C@H](C)N(c2nc(NCCC(=O)N(C)C)nc3c(F)c(-c4c(C)ccc5onc(N)c45)c(Cl)cc23)C[C@H]1C [Compound 64, 3-(4-((2S,5R)-4-acryloyl-2,5-dimethylpiperazin-1-yl)-7-(3-amino-5-methylbenzo[d]isoxa-zol-4-yl)-6-chloro-8-fluoroquinazolin-2-ylamino)-N,N-dimethylpropanamide]",++ (++ indicates binding activity from 50 to 80%)
13,"C=CC(=O)N1C[C@H](C)N(c2nc(N3CC(N(C)C)C3)nc3c(F)c(-c4c(C)ccc5c(O)n[nH]c45)c(Cl)cc23)C[C@H]1C [Compound 65, 1-((2R,5S)-4-(6-chloro-2-(3-(dimethylamino)azetidin-1-yl)-8-fluoro-7-(3-hydroxy-6-methyl-1H-indazol-7-yl)quinazolin-4-yl)-2,5-dimethylpiperazin-1-yl)prop-2-en-1-one]",+ (+ indicates binding activity greater than 0% and up to 50%)
14,"C=CC(=O)N1C[C@H](C)N(c2nc(Nc3cnn(C)c3)nc3c(F)c(-c4c(C)ccc5[nH]nc(N)c45)c(Cl)cc23)C[C@H]1C [Compound 68, 1-((2R,5S)-4-(7-(3-amino-5-methyl-1H-indazol-4-yl)-6-chloro-8-fluoro-2-(1-methyl-1H-pyrazol-4-ylamino)quinazolin-4-yl)-2,5-dimethylpiperazin-1-yl)prop-2-en-1-one]",+++ (+++ indicates binding activity greater than 80%)
15,"C=CC(=O)N1C[C@H](C)N(c2nc(OCCCN(CC)CC)nc3c(F)c(-c4c(C)ccc5[nH]nc(N)c45)c(Cl)cc23)C[C@H]1C [Compound 69, 1-((2R,5S)-4-(7-(3-amino-5-methyl-1H-indazol-4-yl)-6-chloro-2-(3-(diethylamino)propoxy)-8-fluoroquinazolin-4-yl)-2,5-dimethylpiperazin-1-yl)prop-2-en-1-one]",+++ (+++ indicates binding activity greater than 80%)
16,"C=CC(=O)N1C[C@H](C)N(c2nc(OCCN3CCC(F)CC3)nc3c(F)c(-c4c(C)ccc5[nH]nc(N)c45)c(Cl)cc23)C[C@H]1C [Compound 70, 1-((2R,5S)-4-(7-(3-amino-5-methyl-1H-indazol-4-yl)-6-chloro-8-fluoro-2-(2-(4-fluoropiperidin-1-yl)ethoxy)quinazolin-4-yl)-2,5-dimethylpiperazin-1-yl)prop-2-en-1-one]",+++ (+++ indicates binding activity greater than 80%)
17,"C=CC(=O)N1C[C@H](C)N(c2nc(N3CC(N(C)C)C3)nc3c(F)c(-c4c(C)ccc5c(N)noc45)c(Cl)cc23)C[C@H]1C [Compound 71, 1-((2R,5S)-4-(7-(3-amino-6-methylbenzo[d]isoxazol-7-yl)-6-chloro-2-(3-(dimethylamino)azetidin-1-yl)-8-fluoroquinazolin-4-yl)-2,5-dimethylpiperazin-1-yl)prop-2-en-1-one]",+ (+ indicates binding activity greater than 0% and up to 50%)
18,"C=CC(=O)N1C[C@H](C)N(c2nc(NCCCN3CCOCC3)nc3c(F)c(-c4c(C)ccc5[nH]nc(N)c45)c(Cl)cc23)C[C@H]1C [Compound 72, 1-((2R,5S)-4-(7-(3-amino-5-methyl-1H-indazol-4-yl)-6-chloro-8-fluoro-2-(3-morpholinopropylami-no)quinazolin-4-yl)-2,5-dimethylpiperazin-1-yl)prop-2-en-1-one]",+++ (+++ indicates binding activity greater than 80%)
19,"C=CC(=O)N1C[C@H](C)N(c2nc(NCCCN(C)C)nc3c(F)c(-c4c(C)ccc5onc(N)c45)c(Cl)cc23)C[C@H]1C [Compound 73, 1-((2R,5S)-4-(7-(3-amino-5-methylbenzo[d]isoxa-zol-4-yl)-6-chloro-2-(3-(dimethylamino)propyl-amino)-8-fluoroquinazolin-4-yl)-2,5-dimethylpiperazin-1-yl)prop-2-en-1-one]",+ (+ indicates binding activity greater than 0% and up to 50%)
20,"C=CC(=O)N1C[C@H](C)N(c2nc(Nc3cnn(C)c3)nc3c(F)c(-c4c(C)ccc5onc(N)c45)c(Cl)cc23)C[C@H]1C [Compound 74, 1-((2R,5S)-4-(7-(3-amino-5-methylbenzo[d]osoxa-zol-4-yl)-6-chloro-8-fluoro-2-(1-methyl-1H-pyrazol-4-ylamino)quinazolin-4-yl)-2,5-dimethylpiperazin-1-yl)prop-2-en-1-one]",+ (+ indicates binding activity greater than 0% and up to 50%)
